For orientation: EC50 means the concentration at which the effect is half-maximal. Broadly, the Cmax is the peak of the concentration-time curve. As usually defined, the Tmax is the time at which the peak concentration occurs. What is called Vd/F is the apparent distribution volume after extravascular dosing. By bioavailability is commonly meant dose-corrected exposure relative to a reference, in per cent. High values mean much systemic uptake, low ones little systemic uptake.

The values below come from patent US20220227722A1, “SPHINGOSINE 1 PHOSPHATE RECEPTOR MODULATOR” (RECEPTOS LLC, priority 2019, published 2022).

The structures appear in SMILES notation. Like-named read-outs stand apart in the source and are kept apart here. Where only a bound is given, the exact number is not on record here.

Series [1] concerns the target T1, S1P1R (Homo sapiens, UniProt P21453).
T1 construct: expressed in transfected cells; membranes
The series is described as follows: [35S]GTPγS binding to membranes, S1P1R. The format is biochemical. As to the method:
(§1) S1P1R is a GPCR that couples exclusively to the inhibitory G protein (Gαi), decreasing adenylate cyclase activity and lowering cyclic adenosine monophosphate (cAMP levels) in the cell. The potency of Compound 1 was tested against the S1P1 receptor (S1P1R) and related family members. The potency and S1P receptor selectivity were measured using two independent in vitro assays, [^35S]guanosine-5′-O-(3-thio)triphosphate ([^35S]GTPγS) and β-lactamase gene expression and activity. The GTPγS binding to membranes prepared from stable mammalian cells lines expressing recombinant human S1P receptors 1-5 (S1P1R-S1P5R) was used to pharmacologically characterize ligand interaction with the S1P receptor family members. […] Membrane-bead complexes were then pelleted by centrifugation before the bound radioactivity was quantified with a MicroBeta2® microplate scintillation counter. The radioactive counts relative to DMSO vehicle were calculated and the half maximal effective concentration (EC50) was determined using non-linear regression.

The target of series [2] is T2, S1P2R (Homo sapiens, UniProt O95136).
T2 construct: expressed in transfected cells; membranes
The series is described as follows: [35S]GTPγS binding to membranes, S1P2R. It is filed as biochemical. As to the method: as §1

Series [3] has as its target T3, S1P3R (Homo sapiens, UniProt Q99500).
T3 construct: expressed in transfected cells; membranes
In words: [35S]GTPγS binding to membranes, S1P3R. The format is biochemical. As to the method: as §1
A general note: GTPγS is a poorly hydrolysed GTP analogue; its binding reports G protein activation.

In series [4] the target is T4, S1P4R (Homo sapiens, UniProt O95977).
T4 construct: expressed in transfected cells; membranes
T4 sequence (O95977 1-384): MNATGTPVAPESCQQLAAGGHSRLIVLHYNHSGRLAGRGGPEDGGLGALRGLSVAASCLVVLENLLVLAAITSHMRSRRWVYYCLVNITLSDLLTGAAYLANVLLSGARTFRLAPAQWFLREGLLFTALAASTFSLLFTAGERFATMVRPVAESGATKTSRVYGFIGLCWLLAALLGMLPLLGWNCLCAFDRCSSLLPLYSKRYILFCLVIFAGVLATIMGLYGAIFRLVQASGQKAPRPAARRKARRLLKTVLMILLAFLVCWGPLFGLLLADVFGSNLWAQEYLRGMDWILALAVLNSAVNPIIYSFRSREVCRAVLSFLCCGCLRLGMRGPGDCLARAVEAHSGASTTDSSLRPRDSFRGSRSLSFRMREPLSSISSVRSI
In words: [35S]GTPγS binding to membranes, S1P4R. The format is biochemical. As to the method:
as §1

In series [5] the target is T5, S1P5R (Homo sapiens, UniProt Q9H228).
T5 construct: expressed in transfected cells; membranes
In words: [35S]GTPγS binding to membranes, S1P5R. The format is biochemical. The procedure: as §1

For series [6], the target named is T1, S1P1R. In words: β-lactamase gene expression and activity whole-cell assay, S1P1R. To be noted: stable cells expressing recombinant human S1P1R. It is filed as cell-based. The procedure:
(§2) Up-regulation of β-lactamase gene expression and activity were used as a whole-cell functional readout of S1P receptor activation. […] The respective β-lactamase activity was then determined using a fluorescence resonance energy transfer (FRET)-based β-lactamase fluorescent substrate (LiveBLAzer™-FRET B/G Loading Kit CCF4-AM) according to manufacturer's instructions, and incubated with cells for 2 hours at RT. Plates were read using a SpectraMax M5 Multi-Mode microplate reader and the relative response to DMSO vehicle calculated for the EC50 determination using non-linear regression.

In series [7] the target is T3, S1P3R. The series is described as follows: β-lactamase gene expression and activity whole-cell assay, S1P3R. The format is cell-based. To be noted: stable cells expressing recombinant human S1P3R. As to the method:
as §2

The target in series [8] is T4, S1P4R. In words: β-lactamase gene expression and activity whole-cell assay, S1P4R. The format is cell-based. Particulars: stable cells expressing recombinant human S1P4R. The procedure:
as §2

The target of series [9] is T5, S1P5R. In words: β-lactamase gene expression and activity whole-cell assay, S1P5R. The format is cell-based. The procedure: as §2
Series [10] can be described thus: Compound 1 single dose pharmacokinetics in the rat. Particulars: Sprague-Dawley, plasma; for AUC(0-t): read-out: AUC0-24; for half-life: read-out: t½ (converted). The format is in vivo. As to the method: Plasma samples (50 μL) were aliquoted into a 96 deep-well polypropylene plate (2 mL/well) and 5 μL of dimethyl sulfoxide (DMSO) was added. Samples expected to be above the upper limit of quantitation (ULOQ) were diluted with plasma. Standard curves were prepared by mixing 5 μL of the test compound in DMSO at 10 times the concentration which was added to 50 μL of plasma in a 96 deep-well polypropylene plate. For example, for a 0.3 μM standard, the 10×DMSO concentration of the test compound was 3 μM. Standard curves were prepared using analytical standards of Compound 1. Protein was precipitated from study samples and standards by the addition of 150 μL of acetonitrile. The plate was vortexed to ensure complete precipitation of protein. The precipitated protein was pelleted by centrifugation at 4,000 rpm for 10 min at 20° C. and the clear supernatant was transferred to a clean 96-well plate and centrifuged again under the same conditions to pellet any transferred solid material.
Samples (7 μL) were introduced to a Shimadzu HPLC (LC-20ADXR) with a SIL-30ACMP autosampler (Shimadzu). The mobile phase was a gradient using 0.1% formic acid in water and 0.1% formic acid in acetonitrile. The column used was a Phenomenex Kinetic C18 100 A 2.6μ30×3 mm (PN 946975-906). The CTO-20AC column oven (Shimadzu) was set at 40° C. Prepared samples were usually analyzed in order of lowest to highest concentration for standards and reverse order of time-points for study samples. Study samples were bracketed by full standard curves. Typically at least 6 standards were used for quantitation with a percent accuracy of +/−15% for all standards except at the lower level of quantitation (LLOQ) where a percent accuracy of +/−20% was allowed.
An ABSciex Instruments Triple Quad 5500 Mass Spectrometer (Analyst 1.6.3) was used for detection in the MRM mode. Ionization was achieved by positive or negative electrospray with a source temperature of 600° C. Negative and positive mode analysis was performed in the same injection. Standard samples were usually analyzed in order of lowest to highest concentration. Typically at least six standards were used for quantification with a percent accuracy of +/−15% for all standards except at the LLOQ where a percent accuracy of +/−20% was allowable. Study samples were analyzed in reverse chronological order bracketed with bracketing standard curves.
Blood concentration versus time data are analyzed using non-compartmental methods (WinNonlin version 5.2; model 200 for oral dosing and model 202 for intravenous infusion). Absolute oral bioavailability (%) is calculated using the following expression: (Oral AUC×IV Dose)/(IV AUC×Oral Dose)×100.
Compound 1 was administered in a formulation of 10% volume/volume (v/v) DMSO and 5% v/v Tween 20 in water by IV administration (10 mL/kg) or 0.5% weight/volume (w/v) CMC in water by oral gavage (10 mL/kg). Animals received 0.2 mg/kg as the IV dose or 2 mg/kg/day orally as a single administration. Blood samples were collected at 1, 5, and 30 minutes, 2, 4, 8, 10, 24, […], 48, and 72 hours after IV dosing and 1, 2, 3, 4, 6, 8, 10, 12, 24, 48, and 72 hours following oral dosing. Blood was collected into tubes containing the anti-coagulant K2EDTA and processed to plasma. Plasma concentrations for each analyte were determined using a qualified LC-MS/MS method.

Series [11] deals with circulating lymphocytes. In words: Assessment of circulating lymphocyte counts after single oral dose. It is filed as in vivo, Sprague Dawley rats. To be noted: rat, 2 mg/kg oral single dose. The procedure:
Whole blood samples were collected from acclimated, conscious male Sprague Dawley rats in the fed state using percutaneous jugular vein puncture at pre-dose and 3, 6 and 24 hours after single oral dose administration of vehicle or test compound. Blood samples were collected into K2EDTA tubes, thoroughly mixed and stored on wet ice until analyzed. Circulating lymphocyte counts were assessed by two methods from individual aliquots of the same samples. Total lymphocyte counts were determined in a standard hematology panel on a calibrated analyzer (Test #416; Horiba Medical ABX Pentra XL 80) and by in-house flow cytometry using fluorescent-activated cell sorting (FACS) analysis to determine the number of CD4+, CD8+ and B220+ lymphocytes (ThermoFisher Attune NxT flow cytometer). Data are expressed as follows for absolute lymphocyte counts (hematology analyzer), the individual lymphocyte subtypes (CD4+, CD8+ and B220+) and the sum of the individual lymphocyte subtypes (flow cytometry). • Number of lymphocytes per μL whole blood. • Percentage change relative to each group's pre-dose baseline at each time point
Whole blood samples (K2EDTA) were analyzed on the flow cytometer (ThermoFisher Attune NxT) using rat antibodies, as detailed below. The baseline and 3 hour post-dose samples were analyzed on the same day as collection. The 6 hour post-dose samples were analyzed after overnight storage at 4° C. (on wet ice in a 2-8° C. fridge) and on the same day as the 24 hour post-dose samples were collected and analyzed.
The oral dose level of 2 mg/kg of Compound 1 administered to the animals was intended to induce a significant reduction (˜≥60%) in the number of circulating lymphocyte. Following acclimation, blood samples were serially collected from the jugular vein of conscious Sprague Dawley rats prior to dosing and 3 hours, 6 and 24 hours after administration. The absolute number of circulating lymphocytes was quantified in whole blood samples using a hematology analyzer and the CD4^+, CD8^+ and B220^+ lymphocyte subtypes by flow cytometry. The plasma concentrations for each compound were quantified with liquid chromatography, tandem mass spectrometry.

A short description of series [12]: Clinical PK, Phase 1 study of ozanimod HCl in relapsing remitting multiple sclerosis subjects. It is filed as in vivo, human. Particulars: for Tmax: read-out: Median Tmax; for % of total agonist exposure at steady state: total agonist = sum of ozanimod and active metabolites, ozanimod HCl PO QD. The text has this:
Serial blood PK samples were collected on Days 1 and the last day of dosing.

[13] abbreviates: Table 4 comparative selectivity, agonist values, read-out: EC50 S1P2.
The mark [14] stands for this setting: Table 4 comparative selectivity, agonist values, read-out: EC50 S1P3.
[15] abbreviates: Table 4 comparative selectivity, agonist values, read-out: EC50 S1P4.

T5 sequence (Q9H228 whole entry): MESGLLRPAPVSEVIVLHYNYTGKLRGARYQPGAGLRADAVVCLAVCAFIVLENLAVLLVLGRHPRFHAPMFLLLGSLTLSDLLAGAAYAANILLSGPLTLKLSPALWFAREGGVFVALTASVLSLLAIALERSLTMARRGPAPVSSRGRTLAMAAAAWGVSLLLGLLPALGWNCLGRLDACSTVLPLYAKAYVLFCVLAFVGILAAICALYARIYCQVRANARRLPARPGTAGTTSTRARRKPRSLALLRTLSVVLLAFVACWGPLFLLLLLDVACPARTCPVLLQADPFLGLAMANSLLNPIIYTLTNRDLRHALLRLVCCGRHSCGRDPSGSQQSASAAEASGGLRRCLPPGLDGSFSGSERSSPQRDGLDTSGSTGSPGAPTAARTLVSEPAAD
T1 sequence (P21453 whole entry): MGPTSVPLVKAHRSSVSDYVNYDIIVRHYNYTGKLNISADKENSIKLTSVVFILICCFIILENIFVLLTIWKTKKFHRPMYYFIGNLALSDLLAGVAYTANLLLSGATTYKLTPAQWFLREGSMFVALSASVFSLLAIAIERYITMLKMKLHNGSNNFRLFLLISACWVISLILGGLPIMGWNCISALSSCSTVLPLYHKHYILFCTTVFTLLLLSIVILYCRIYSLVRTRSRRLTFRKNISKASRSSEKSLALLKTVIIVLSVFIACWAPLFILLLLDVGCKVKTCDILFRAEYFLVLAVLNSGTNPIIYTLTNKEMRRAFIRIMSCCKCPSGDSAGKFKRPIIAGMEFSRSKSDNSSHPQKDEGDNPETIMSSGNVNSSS
T2 sequence (O95136 whole entry): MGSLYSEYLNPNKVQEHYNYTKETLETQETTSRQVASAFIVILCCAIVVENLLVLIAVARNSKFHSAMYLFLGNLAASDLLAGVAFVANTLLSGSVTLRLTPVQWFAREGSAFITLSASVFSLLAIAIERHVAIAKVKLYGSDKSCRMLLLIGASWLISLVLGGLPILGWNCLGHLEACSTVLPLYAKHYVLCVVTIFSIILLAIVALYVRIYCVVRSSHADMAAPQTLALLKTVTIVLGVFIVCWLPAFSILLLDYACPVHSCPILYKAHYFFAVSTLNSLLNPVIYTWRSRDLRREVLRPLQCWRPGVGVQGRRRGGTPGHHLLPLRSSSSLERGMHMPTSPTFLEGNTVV
T3 sequence (Q99500 whole entry): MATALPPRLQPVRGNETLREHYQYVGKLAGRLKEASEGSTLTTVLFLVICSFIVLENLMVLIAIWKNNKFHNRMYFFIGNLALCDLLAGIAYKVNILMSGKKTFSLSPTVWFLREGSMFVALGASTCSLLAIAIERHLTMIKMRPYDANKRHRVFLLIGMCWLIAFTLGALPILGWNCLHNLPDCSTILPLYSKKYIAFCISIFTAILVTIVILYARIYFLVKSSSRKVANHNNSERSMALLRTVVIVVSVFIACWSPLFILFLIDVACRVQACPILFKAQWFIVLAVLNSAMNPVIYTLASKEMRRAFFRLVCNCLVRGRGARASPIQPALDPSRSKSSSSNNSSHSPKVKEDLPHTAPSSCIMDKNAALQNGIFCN

Regarding `CC(C)Oc1ccc(-c2nc(-c3cccc4c3CCC4=O)no2)cc1C#N` [Compound 1, 2-isopropoxy-5-(3-(1-oxo-2,3-dihydro-1H-inden-4-yl)-1,2,4-oxadiazol-5-yl)benzonitrile], in series [1] ([35S]GTPγS binding activity readout), the “selectivity for S1P1R over S1P2R, S1P3R and S1P4R” value was “greater than 1000 fold”. Also, the EC50 in series [1] (recombinant human S1P1R membranes) is 2.1 nM; in [2] (setting [13]) it was above 10 µM; in [2] (recombinant human S1P2R membranes, read-out: EC50 S1P2R GTPγS), above 10 µM; in series [3] (setting [14]), above 5 µM; in series [3] (recombinant human S1P3R membranes, read-out: EC50 S1P3R GTPγS) it was above 5 µM; in series [4] (setting [15]), above 10 µM. The EC50 was above 10 µM in series [4] (recombinant human S1P4R membranes, read-out: EC50 S1P4R GTPγS); 17.9 nM in [5] (recombinant human S1P5R membranes, read-out: EC50 S1P5R GTPγS); 0.04 nM in [6]; above 10 µM in series [7]; above 10 µM in series [8]; 6.9 nM in series [9] (stable cells expressing recombinant human S1P5R). Further, the “selectivity for S1P5R over S1P2R, S1P3R and S1P4R” value in series [5] (GTPγS readout) and in series [9] (β-lactamase readout) was “greater than 200 fold” in each case. The Cmax in series [10] (0.2 mg/kg IV, single dose) was 743 nM; in [10] (2.0 mg/kg oral, single dose), 14.8 nM. The Tmax in series [10] (0.2 mg/kg IV, single dose) is 0.02 h; in [10] (2.0 mg/kg oral, single dose), 3 h; in series [12] (human, blood, po) it was 6 to 10 h. The AUC(0-t) in series [10] (0.2 mg/kg IV, single dose) was 0.386 µM·h; in series [10] (2.0 mg/kg oral, single dose), 0.0954 µM·h. Further, the half-life in series [10] (0.2 mg/kg IV, single dose) is 97.2 min; in series [10] (2.0 mg/kg oral, single dose) it was 224 min. In addition, the Vd/F in series [10] (2.0 mg/kg oral, single dose) came to 292 L/kg. In series [10] (2.0 mg/kg oral vs 0.2 mg/kg IV), this compound yielded a bioavailability of 2.5%. The “time of maximum effect on lymphocyte counts” value in series [11] is listed as “by six hours after administration”. The “effect on lymphocyte counts at the 24 hour time-point” value in series [11] (24 hours) was “without significant effect”. In addition, in [11] (flow cytometry), the “reduction of B220+ lymphocyte population relative to pre-dose” value was 35%. For the same compound, in series [11] (flow cytometry), the “reduction of CD4+ lymphocyte population relative to pre-dose” value worked out at 68%. Besides, the “reduction of CD8+ lymphocyte population relative to pre-dose” value in [11] (flow cytometry) was determined as 62%. In addition, the “reduction of total circulating lymphocyte counts (total number of CD4+, CD8+ and B220+) relative to pre-dose” value in series [11] (flow cytometry) stood at 52%. The “fewer lymphocytes relative to pre-dose values” in [11] (hematology analyzer) was determined as 44%. Also, the “Peak-to-trough ratio (at steady state)” value in series [12] (RMS subjects, ozanimod HCl 0.5 or 1 mg PO QD, steady state) was 1.3- to 1.6-fold. Also, the “% of total agonist exposure at steady state” value in [12] was 85% to 93%.

On to `CC(C)Oc1ccc(-c2nc(-c3cccc4c3CC[C@@H]4NCCO)no2)cc1C#N` [Ozanimod, reference compound], for which the EC50 was above 10 µM in series [2] (setting [13]); above 5 µM in series [3] (setting [14]); 2.04 µM in [4] (setting [15]); 5.1 nM in [5] (Table 4 comparative selectivity, agonist values, read-out: EC50 S1P5). Also, the half-life in [12] (human, blood, po, 1 mg, read-out: Mean t1/2 (at steady state)) was in the range of 900 to 1380 min. Besides, in series [12] (human, blood, po), the Tmax is 6 to 8 h. In series [12], the “% of total agonist exposure at steady state” value is recorded as “Ozanimod: 3% to 6%”.
